The subject of data set [1] is Rattus norvegicus. In words: Anesthetic effect in Sprague-Dawley rat assessed as duration time of disappearance of righting reflex to recovery of righting reflex at 2 times ED50, iv. In kind it is functional.
For data set [2], the system named is Rattus norvegicus. In words: Anesthetic effect in Sprague-Dawley rat assessed as onset time of disappearance of the righting reflex at 2 times ED50, iv. In kind it is functional.
Data set [3] can be described thus: Toxicity in iv dosed Sprague-Dawley rat. Type of data set: organism-based. Particulars: in vivo.
Data set [4] is described as follows: Therapeutic index, ratio of LD50 for Sprague-Dawley rat to ED50 for Sprague-Dawley rat. In kind it is organism-based. The conditions noted are these: in vivo, read-out: TI.
The test system of data set [5] is Rattus norvegicus. In words: Anesthetic effect in iv dosed Sprague-Dawley rat assessed as disappearance of the righting reflex. Type of data set: functional.
Data set [6] can be described thus: Drug degradation in 30% emulsion at 5 umol/ml measured up to 4 hrs by HPLC analysis. Type of data set: physicochemical. Particulars: 5000 µM.
Data set [7] can be described thus: Drug degradation in aqueous ethanol at 5 umol/ml measured up to 4 hrs by HPLC analysis. Type of data set: physicochemical. Particulars: buffer, 5000 µM.
Data set [8] concerns Plasma. In words: Prodrug activation in preheated rat plasma assessed as propofol release at 5 umol/ml measured up to 4 hrs by HPLC analysis. In kind it is cell-free. The conditions noted are these: 5000 µM.
Data set [9] is described as follows: Solubility of the compound in water. In kind it is physicochemical. Particulars: buffer.
For data set [10], the system named is Rattus norvegicus. In words: Anesthetic effect in Sprague-Dawley rat assessed as disappearance of the righting reflex at 200 mg/kg, iv. Further details: dose 200 mg/kg. Type of data set: functional, organism-based.
Data set [11] has as its system Rattus norvegicus. In words: Anesthetic effect in Sprague-Dawley rat assessed as disappearance of the righting reflex at 34 mg/kg, iv. Further details: dose 34 mg/kg. Type of data set: functional, organism-based.
Data set [12] has as its system Rattus norvegicus. In words: Toxicity in Sprague-Dawley rat assessed as duration of systemic convulsions at 34 mg/kg, iv. Type of data set: organism-based. Further details: dose 34 mg/kg, route intravenous. The conditions noted are these: in vivo.
The subject of data set [13] is Rattus norvegicus. In words: Toxicity in Sprague-Dawley rat assessed as duration of systemic convulsions at 40 mg/kg, iv. Particulars: in vivo. In kind it is organism-based. Also on record: dose 40 mg/kg, route intravenous.

SMILES strings stand for the structures. The source made the active and inactive calls. The calls are words filed in the database; no cut-off is given here.

On to `CC(C)c1cccc(C(C)C)c1O` [PROPOFOL], for which the Time worked out at 8.41 min in data set [1] and 0 min in data set [2]. Moreover, the LD50 in data set [3] is 27.1 mg/kg. In addition, the selectivity ratio in data set [4] is 4.12. Besides, the ED50 in data set [5] turned out to be 6.57 mg/kg.

As for `CC(C)c1cccc(C(C)C)c1OC(=O)CCCO`, the values for the Time in [1] and in data set [2] were 24.36 min and 0.06 min, respectively. This compound displayed an LD50 in data set [3] of 81.5 mg/kg. Also, in data set [4], the selectivity ratio stood at 4.67. Also, the ED50 in data set [5] stood at 17.5 mg/kg. Further, the Stability result in data set [6] and in data set [7] was “Stable” in each case. Besides, in data set [8], the Drug metabolism result was “Active”.

Consider `CC(C)c1cccc(C(C)C)c1OC(=O)CCCOC(=O)CN.O=C(O)C(F)(F)F`, for which the figures for the Time in [1] and in data set [2] were 12.74 min and 0.26 min, respectively. This compound displayed an LD50 in [3] of 42.7 mg/kg. The selectivity ratio in [4] came out at 2.96. Moreover, in data set [5], the 50% effective dose (ED50) worked out at 14.4 mg/kg. Moreover, the solubility entry in data set [9] was “soluble”.

Turning to `CC(C)c1cccc(C(C)C)c1OC(=O)CCCOP(=O)([O-])[O-].[Na+].[Na+]`, the Time in data set [1] is reported as 27.49 min; in data set [2], 2.11 min. Also, the LD50 in data set [3] was found to be 288 mg/kg. Further, the selectivity ratio in data set [4] is 6.48. For the same compound, the ED50 in [5] turned out to be 44.5 mg/kg. Besides, the solubility result in data set [9] is recorded as “soluble”.

As to `CC(C)c1cccc(C(C)C)c1OCOP(=O)([O-])[O-].[Na+].[Na+]` [FOSPROPOFOL DISODIUM], the results for the Time in data set [1] and in [2] were 31.04 min and 2.17 min, respectively. The compound also came in with an LD50 in [3] of 163 mg/kg. Further, the selectivity ratio in data set [4] worked out at 4.69. In [5], the ED50 was 34.8 mg/kg.

With `CCCC(=O)Oc1c(C(C)C)cccc1C(C)C`, the outcome in data set [10] was inactive. The solubility result in data set [9] is “Insoluble”.

As for `CC(C)c1cccc(C(C)C)c1OCCCCO`, the outcome in data set [11] was inactive. For the same compound, in data set [12], the Activity entry is on record as “Toxic”. In addition, in data set [13], the Time worked out at 3.8 min. For the same compound, in [9], the solubility result was “Insoluble”.

(Values after ChEMBL document CHEMBL2331526, “Synthesis and characterization of novel quick-release propofol prodrug via lactonization” (Bioorg Med Chem Lett, 2013).)
